Source: patent publication US8697888B2, “Substituted (1-(methylsulfonyl)azetidin-3-yl)(heterocycloalkyl)methanone analogs as antagonists of muscarinic acetylcholine M1 receptors” (Vanderbilt University, priority 2012, dated 2014)
Marks after values point to notes of the source that are not given here.

Biological target: T1, mAChR M1 (UniProt P11229)
T1 sequence (P11229 1-460): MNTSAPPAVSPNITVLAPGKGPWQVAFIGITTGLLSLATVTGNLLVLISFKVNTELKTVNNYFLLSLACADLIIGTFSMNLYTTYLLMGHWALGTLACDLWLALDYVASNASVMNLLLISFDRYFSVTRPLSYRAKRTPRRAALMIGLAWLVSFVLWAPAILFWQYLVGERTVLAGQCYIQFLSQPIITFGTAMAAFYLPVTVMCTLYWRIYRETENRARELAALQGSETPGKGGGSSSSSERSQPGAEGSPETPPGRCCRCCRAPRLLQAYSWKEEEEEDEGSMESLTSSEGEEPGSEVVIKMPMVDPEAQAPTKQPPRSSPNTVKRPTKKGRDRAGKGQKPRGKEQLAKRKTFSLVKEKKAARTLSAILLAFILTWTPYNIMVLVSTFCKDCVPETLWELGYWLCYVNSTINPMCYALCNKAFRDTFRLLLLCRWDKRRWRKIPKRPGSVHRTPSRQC
Test: mAChR M1 cell-based functional assay (calcium mobilization, antagonist mode)
Details: for IC50: concentration of antagonist decreasing calcium flux by 50%, EC80 acetylcholine response, CHO-K1 cells expressing mAChR M1, read-out: Potency (IC50)
Source text: Chinese hamster ovary (CHO-K1) cells stably expressing rat (r)M1 were purchased from the American Type Culture Collection and cultured according to their indicated protocol. CHO cells stably expressing human (h)M2, hM3, and hM5 were described previously (Levey, et al., 1991); hM1 and hM4 cDNAs were purchased from Missouri S&T cDNA Resource; rM4 cDNA was provided by T. I. Bonner (National Institutes of Health, Bethesda, Md.). rM2 and rM3 were cloned from a rat brain cDNA library and sequence verified. hM1, rM2, rM3, hM4, and rM4 cDNAs were used to stably transfect CHO-K1 cells purchased from the American Type Culture Collection using Lipofectamine-2000. To make stable rM2, hM2, rM3, hM4, and rM4 cell lines for use in calcium mobilization assays, these cells also were stably transfected with a chimeric G-protein (Gqi5) (provided by B. R. Conklin, University of California, San Francisco) using Lipofectamine 2000. rM1, hM1, rM3, hM3, rM5, and hM5 cells were grown in Ham's F-12 medium containing 10% heat-inactivated fetal bovine serum (FBS), 20 mM HEPES, and 50 μg/mL G418 sulfate. rM2-Gqi5, hM2-Gqi5, and hM4-Gqi5 cells were grown in the same medium also containing 500 μg/mL Hygromycin B. Stable rM4-Gqi5 cells were grown in DMEM containing 10% heat-inactivated FBS, 20 mM HEPES, 400 μg/mL G418 sulfate, and […].
For high throughput measurement of antagonist inhibited increases in intracellular calcium, CHO-K1 cells stably expressing muscarinic receptors were plated in growth medium lacking G418 and hygromycin at 15,000 cells/20 μL/well in Greiner 384-well black-walled, tissue culture (TC)-treated, clear-bottom plates (VWR). Cells were incubated overnight at 37° C. and 5% CO2. The next day, cells were washed using an ELX 405 (BioTek) with four washes (80 μL) of assay buffer then aspirated to 20 μL. Next, 20 μL of 16 μM Fluo-4/acetoxymethyl ester (Invitrogen, Carlsbad, Calif.) prepared as a 2.3 mM stock in DMSO and mixed in a 1:1 ratio with 10% (w/v) Pluronic F-127 and diluted in assay buffer was added to the wells and the cell plates were incubated for 50 min at 37° C. and 5% CO2. Dye was removed by washing with the ELX 405 (four 80 μL washes of assay buffer) then aspirated to 20 μL. Compound master plates were formatted in an 11 point CRC format (1:3 dilutions) in 100% DMSO with a starting concentration of 10 mM using the BRAVO liquid handler (Agilent). Test compound CRCs were then transferred to daughter plates (240 nL) using the Echo acoustic plate reformatter (Labcyte, Sunnyvale, Calif.) and then diluted into assay buffer (40 μL) to a 2× stock using a Thermo Fisher Combi (Thermo Fisher Scientific, Waltham, Mass.).
Calcium flux was measured using the Functional Drug Screening System (FDSS) 6000 (Hamamatsu Corporation, Tokyo, Japan) as an increase in the fluorescent static ratio. Compounds were applied to cells (20 μL, 2×) using the automated system of the FDSS 6000 at 4 s into the 300 s protocol and the data were collected at 1 Hz. At 144 s into the 300 s protocol, 10 μL of an EC20 concentration of the muscarinic receptor agonist acetylcholine was added (5×), followed by the addition of 12 μL an EC80 concentration of acetylcholine at the 230 s time point (5×). Agonist activity was analyzed as a concentration-dependent increase in calcium mobilization upon compound addition. Positive allosteric modulator activity was analyzed as a concentration-dependent increase in the EC20 acetylcholine response. Antagonist activity was analyzed as a concentration-dependent decrease in the EC80 acetylcholine response. Concentration-response curves were generated using a four-parameter logistical equation in XLfit curve fitting software (IDBS, Bridgewater, N.J.) for Excel (Microsoft, Redmond, Wash.) or Prism (GraphPad Software, Inc., San Diego, Calif.).
The calcium mobilization assay was used to determine “potency”.

[1] = dash = baseline or about zero remaining activity (table footnote)
[2] = activity remaining at top dose of 30 μM test compound, as percentage of the response to an approx. EC80 concentration of ACh

Structure (SMILES)	IC50 [µM]	Remaining Activity (%) [1]	Remaining Activity (%) [2]
O=C(C1CN(S(=O)(=O)c2cccc3nonc23)C1)N1CCN(c2ccncc2)CC1 [B8]	0.29	— (Unless otherwise indicated with a numerical value, the percent remaining activity is baseline or about zero, i.e. as indicated by “—”)	
Cc1cnccc1N1CCN(C(=O)C2CN(S(=O)(=O)c3cccc4cnccc34)C2)CC1 [B13]	0.39	— (Unless otherwise indicated with a numerical value, the percent remaining activity is baseline or about zero, i.e. as indicated by “—”)	
O=C(C1CN(S(=O)(=O)c2cccc3c(Cl)nc(Cl)cc23)C1)N1CCN(c2ccncc2)CC1 [B30]		— (Unless otherwise indicated with a numerical value, the percent remaining activity is baseline or about zero, i.e. as indicated by “—”)	
Cn1ccc(-c2ccccc2S(=O)(=O)N2CC(C(=O)N3CCN(c4ccncc4)CC3)C2)n1 [B64]	> 10		≧80%
CCC(C)S(=O)(=O)N1CC(C(=O)N2CC3CN(c4ccncc4)CC3C2)C1 (stereo not shown) [B85]	> 10		≧80%
O=C(C1CN(S(=O)(=O)c2cccc3ncccc23)C1)N1CC2CN(c3ccncc3)CC2C1 (stereo not shown) [B52]	3.5	— (Unless otherwise indicated with a numerical value, the percent remaining activity is baseline or about zero, i.e. as indicated by “—”)	
O=C(C1CN(S(=O)(=O)c2cccc3cnccc23)C1)N1CCc2cccnc2C1 [B51]	> 10		60%
O=C(C1CN(S(=O)(=O)c2cccnc2Cl)C1)N1CC2CN(c3ccncc3)CC2C1 (stereo not shown) [B54]	0.93	— (Unless otherwise indicated with a numerical value, the percent remaining activity is baseline or about zero, i.e. as indicated by “—”)	
Cc1nc(-c2cccc(S(=O)(=O)N3CC(C(=O)N4CCN(c5ccncc5)CC4)C3)c2)no1 [B71]	> 10		≧80%
O=C(C1CN(S(=O)(=O)c2cc(Cl)ccc2F)C1)N1CCN(c2ccncc2)CC1 [B35]	> 10		32%
O=C(C1CN(S(=O)(=O)c2cccc(Cl)c2F)C1)N1CCN(c2ccncc2)CC1 [B34]			11%
Cc1cc2c(S(=O)(=O)N3CC(C(=O)N4CCN(c5ccncc5)CC4)C3)cccc2cn1 [B22]		— (Unless otherwise indicated with a numerical value, the percent remaining activity is baseline or about zero, i.e. as indicated by “—”)	
Cc1cc(N2CCN(C(=O)C3CN(S(=O)(=O)c4cccc5cnccc45)C3)CC2)cc(C)n1 [B14]	0.46	— (Unless otherwise indicated with a numerical value, the percent remaining activity is baseline or about zero, i.e. as indicated by “—”)	
O=C(C1CN(S(=O)(=O)c2cnc3ccccc3c2)C1)N1CCN(c2ccncc2)CC1 [B39]	> 10		48%
O=C(C1CN(S(=O)(=O)c2cccc3cnc(Cl)cc23)C1)N1CCN(c2ccncc2)CC1 [B19]	0.78	— (Unless otherwise indicated with a numerical value, the percent remaining activity is baseline or about zero, i.e. as indicated by “—”)	
Cc1cc(S(=O)(=O)N2CC(C(=O)N3CCN(c4ccncc4)CC3)C2)cnc1Cl [B7]		— (Unless otherwise indicated with a numerical value, the percent remaining activity is baseline or about zero, i.e. as indicated by “—”)	
O=C(C1CN(S(=O)(=O)c2ccc(C(F)(F)F)nc2)C1)N1CCN(c2ccncc2)CC1 [B41]	> 10		37%

Structure (SMILES)	IC50 [µM]	Remaining Activity (%) [1]	Remaining Activity (%) [2]
O=C(C1CN(S(=O)(=O)c2cccc3cnccc23)C1)N1CCN(c2ccncc2)CC1 [B1]		— (Unless otherwise indicated with a numerical value, the percent remaining activity is baseline or about zero, i.e. as indicated by “—”)	
O=C(NC1CCN(c2ccccc2)C1)C1CN(S(=O)(=O)c2cccc3cnccc23)C1 (stereo not shown) [B82]	> 10		≧80%
Cc1nc(C(F)(F)F)c(S(=O)(=O)N2CC(C(=O)N3CCN(c4ccncc4)CC3)C2)s1 [B27]	2	— (Unless otherwise indicated with a numerical value, the percent remaining activity is baseline or about zero, i.e. as indicated by “—”)	
O=C(C1CN(S(=O)(=O)c2cccc(F)c2)C1)N1CCN(c2ccncc2)CC1 [B23]	1.5	— (Unless otherwise indicated with a numerical value, the percent remaining activity is baseline or about zero, i.e. as indicated by “—”)	
Cn1ccc2cc(S(=O)(=O)N3CC(C(=O)N4CCN(c5ccncc5)CC4)C3)ccc21 [B50]	> 10		59%
O=C(C1CN(S(=O)(=O)c2cccc3nonc23)C1)N1CCCN(c2ccncc2)CC1 [B32]	> 10		34%
O=C(C1CN(S(=O)(=O)c2cccc(OC(F)F)c2)C1)N1CCN(c2ccncc2)CC1 [B68]	> 10		≧80%
O=C(C1CN(S(=O)(=O)c2cccnc2)C1)N1CCN(c2ccncc2)CC1 [B10]	0.35	— (Unless otherwise indicated with a numerical value, the percent remaining activity is baseline or about zero, i.e. as indicated by “—”)	
O=C(C1CN(S(=O)(=O)c2cccc3nonc23)C1)N1CCC(O)(c2ccncc2)CC1 [B61]	> 10		≧80% **
O=C(C1CN(S(=O)(=O)C2CCOCC2)C1)N1CCN(c2ccncc2)CC1 [B81]	> 10		≧80%
O=C(C1CN(S(=O)(=O)c2cccc3nonc23)C1)N1CCN(c2nccs2)CC1 [B33]	> 10		48%
Cn1cc(S(=O)(=O)N2CC(C(=O)N3CCN(c4ccncc4)CC3)C2)cn1 [B18]	0.74	— (Unless otherwise indicated with a numerical value, the percent remaining activity is baseline or about zero, i.e. as indicated by “—”)	
O=C(C1CN(S(=O)(=O)c2ccc3[nH]c(=O)oc3c2)C1)N1CCN(c2ccncc2)CC1 [B75]	> 10		≧80%
O=C(C1CN(S(=O)(=O)c2ccc3occc3c2)C1)N1CCN(c2ccncc2)CC1 [B24]	1.5	— (Unless otherwise indicated with a numerical value, the percent remaining activity is baseline or about zero, i.e. as indicated by “—”)	
O=C(C1CN(S(=O)(=O)c2ccc3[nH]c(=O)sc3c2)C1)N1CCN(c2ccncc2)CC1 [B70]	> 10		≧80%
O=C(C1CN(S(=O)(=O)c2cccc(-n3cnnn3)c2)C1)N1CCN(c2ccncc2)CC1 [B72]	> 10		≧80%
